ChEMBL document CHEMBL1201862, “PubChem BioAssay data set” (2004)
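Five compound concentrations were applied to cells in 96-well plates for 48 hours; endpoints were derived by simple linear interpolation of the resulting dose-response curve. GI50 = concentration required for 50% inhibition of growth.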 The source made the active and inactive calls. Cut-off read from the data, not from the text of the source: active = GI50 up to about 1.1 µM and inactive = higher.

Assays:
Experiment in all cases: inhibition of tumour cell growth, NCI panel, 48 h
OVCAR-3 = tested on: OVCAR-3
MDA-MB-231 = tested on: MDA-MB-231
DU-145 = tested on: DU-145
MDA-N = tested on: MDA-N
COLO 205 = tested on: COLO 205
NCI-H522 = tested on: NCI-H522
NCI-H226 = tested on: NCI-H226
SR = tested on: SR
SK-OV-3 = tested on: SK-OV-3
RXF 393 = tested on: RXF 393
SK-MEL-5 = tested on: SK-MEL-5
UACC-257 = tested on: UACC-257
HOP-92 = tested on: HOP-92
UACC-62 = tested on: UACC-62
SN12C = tested on: SN12C
KM12 = tested on: KM12
SK-MEL-28 = tested on: SK-MEL-28
M14 = tested on: M14
SK-MEL-2 = tested on: SK-MEL-2
HOP-62 = tested on: HOP-62
SF-539 = tested on: SF-539
HCT-116 = tested on: HCT-116
OVCAR-5 = tested on: OVCAR-5
SNB-75 = tested on: SNB-75
CAKI-1 = tested on: CAKI-1
MDA-MB-435 = tested on: MDA-MB-435
OVCAR-8 = tested on: OVCAR-8
ACHN = tested on: ACHN
Hs-578T = tested on: Hs-578T
U-251 = tested on: U-251
MCF7 = tested on: MCF7
UO-31 = tested on: UO-31
PC-3 = tested on: PC-3
SW-620 = tested on: SW-620
LOX IMVI = tested on: LOX IMVI
T47D = tested on: T47D
Malme-3M = tested on: Malme-3M
EKVX = tested on: EKVX
HCT-15 = tested on: HCT-15
OVCAR-4 = tested on: OVCAR-4
IGROV-1 = tested on: IGROV-1
HL-60 = tested on: HL-60
SNB-19 = tested on: SNB-19
786-0 = tested on: 786-0
A549 = tested on: A549
SF-268 = tested on: SF-268
HCC 2998 = tested on: HCC 2998
NCI/ADR-RES = tested on: NCI/ADR-RES
A498 = tested on: A498
NCI-H460 = tested on: NCI-H460
TK-10 = tested on: TK-10
HT-29 = tested on: HT-29
NCI-H23 = tested on: NCI-H23
K562 = tested on: K562
MOLT-4 = tested on: MOLT-4
CCRF-CEM = tested on: CCRF-CEM
RPMI-8226 = tested on: RPMI-8226

Cn1c2c(c3ccccc31)CCN1OCC=C[C@@H](C(=O)O)[C@@H]21
GI50 (OVCAR-3): > 100 µM (inactive) | GI50 (MDA-MB-231): > 100 µM (inactive) | GI50 (DU-145): > 100 µM (inactive) | GI50 (MDA-N): > 100 µM (inactive) | GI50 (COLO 205): > 100 µM (inactive) | GI50 (NCI-H522): > 100 µM (inactive) | GI50 (NCI-H226): > 100 µM (inactive) | GI50 (SR): > 100 µM (inactive) | GI50 (SK-OV-3): > 100 µM (inactive) | GI50 (RXF 393): > 100 µM (inactive) | GI50 (SK-MEL-5): > 100 µM (inactive) | GI50 (UACC-257): > 100 µM (inactive) | GI50 (HOP-92): 17.9 µM (inactive) | GI50 (UACC-62): > 100 µM (inactive) | GI50 (SN12C): > 100 µM (inactive) | GI50 (KM12): > 100 µM (inactive) | GI50 (SK-MEL-28): > 100 µM (inactive) | GI50 (M14): > 100 µM (inactive) | GI50 (SK-MEL-2): > 100 µM (inactive) | GI50 (HOP-62): > 100 µM (inactive) | GI50 (SF-539): > 100 µM (inactive) | GI50 (HCT-116): > 100 µM (inactive) | GI50 (OVCAR-5): > 100 µM (inactive) | GI50 (SNB-75): 82 µM (inactive) | GI50 (CAKI-1): > 100 µM (inactive) | GI50 (MDA-MB-435): > 100 µM (inactive) | GI50 (OVCAR-8): > 100 µM (inactive) | GI50 (ACHN): > 100 µM (inactive) | GI50 (Hs-578T): 31 µM (inactive) | GI50 (U-251): > 100 µM (inactive) | GI50 (MCF7): > 100 µM (inactive) | GI50 (UO-31): 51.3 µM (inactive) | GI50 (PC-3): > 100 µM (inactive) | GI50 (SW-620): > 100 µM (inactive) | GI50 (LOX IMVI): > 100 µM (inactive) | GI50 (T47D): > 100 µM (inactive) | GI50 (Malme-3M): > 100 µM (inactive) | GI50 (EKVX): > 100 µM (inactive) | GI50 (HCT-15): > 100 µM | GI50 (OVCAR-4): > 100 µM (inactive) | GI50 (IGROV-1): > 100 µM (inactive) | GI50 (HL-60): > 100 µM (inactive) | GI50 (SNB-19): > 100 µM (inactive) | GI50 (786-0): > 100 µM (inactive) | GI50 (A549): > 100 µM (inactive) | GI50 (SF-268): > 100 µM (inactive) | GI50 (HCC 2998): > 100 µM (inactive) | GI50 (NCI/ADR-RES): > 100 µM (inactive) | GI50 (A498): > 100 µM (inactive) | GI50 (NCI-H460): > 100 µM (inactive) | GI50 (TK-10): > 100 µM (inactive) | GI50 (HT-29): > 100 µM (inactive)

C=CCn1c(=O)c(Br)nn(CCOCP(=O)(OCC)OCC)c1=O
GI50 (OVCAR-3): > 100 µM (inactive) | GI50 (MDA-MB-231): > 100 µM (inactive) | GI50 (DU-145): > 100 µM (inactive) | GI50 (MDA-N): > 100 µM (inactive) | GI50 (COLO 205): > 100 µM (inactive) | GI50 (NCI-H522): > 100 µM (inactive) | GI50 (NCI-H226): > 100 µM (inactive) | GI50 (SR): > 100 µM (inactive) | GI50 (RXF 393): > 100 µM (inactive) | GI50 (SK-MEL-5): 61.2 µM (inactive) | GI50 (UACC-257): > 100 µM (inactive) | GI50 (NCI-H23): > 100 µM (inactive) | GI50 (HOP-92): > 100 µM (inactive) | GI50 (SN12C): > 100 µM (inactive) | GI50 (KM12): > 100 µM (inactive) | GI50 (SK-MEL-28): > 100 µM (inactive) | GI50 (M14): > 100 µM (inactive) | GI50 (SK-MEL-2): > 100 µM (inactive) | GI50 (HOP-62): > 100 µM (inactive) | GI50 (SF-539): > 100 µM (inactive) | GI50 (OVCAR-5): > 100 µM (inactive) | GI50 (SNB-75): > 100 µM (inactive) | GI50 (CAKI-1): > 100 µM (inactive) | GI50 (MDA-MB-435): > 100 µM (inactive) | GI50 (OVCAR-8): > 100 µM (inactive) | GI50 (ACHN): > 100 µM (inactive) | GI50 (Hs-578T): > 100 µM (inactive) | GI50 (K562): > 100 µM (inactive) | GI50 (U-251): > 100 µM (inactive) | GI50 (MCF7): > 100 µM (inactive) | GI50 (UO-31): > 100 µM (inactive) | GI50 (PC-3): > 100 µM (inactive) | GI50 (SW-620): > 100 µM (inactive) | GI50 (MOLT-4): > 100 µM (inactive) | GI50 (LOX IMVI): > 100 µM (inactive) | GI50 (CCRF-CEM): > 100 µM (inactive) | GI50 (T47D): > 100 µM (inactive) | GI50 (Malme-3M): > 100 µM (inactive) | GI50 (EKVX): > 100 µM (inactive) | GI50 (HCT-15): > 100 µM | GI50 (IGROV-1): > 100 µM (inactive) | GI50 (HL-60): > 100 µM (inactive) | GI50 (SNB-19): > 100 µM (inactive) | GI50 (A549): > 100 µM (inactive) | GI50 (SF-268): > 100 µM (inactive) | GI50 (HCC 2998): > 100 µM (inactive) | GI50 (NCI/ADR-RES): > 100 µM (inactive) | GI50 (A498): > 100 µM (inactive) | GI50 (NCI-H460): > 100 µM (inactive) | GI50 (RPMI-8226): > 100 µM (inactive)
